The text below walks through data of US20240197708A1, “TREATMENT OF PRODROMAL HUNTINGTON DISEASE” (Prilenia Neurotherapeutics Ltd., priority 2021, published 2024).

One assay has as its system early-stage HD patients. Particulars: disclosed in U.S. Pat. Nos. 10,322,119 and 11,207,310; cited from earlier work.
In the next assay the test system is prodromal HD subjects. Conditions: 45 mg bid. The protocol:
The efficacy of pridopidine for treating prodromal HD is evaluated in a randomized, double-blind, placebo-controlled trial.

Setting [1] is: CSF and/or plasma, 52 weeks, vs placebo.

For `CCCN1CCC(c2cccc(S(C)(=O)=O)c2)CC1` [Pridopidine, 4-[3-(methylsulfonyl)phenyl]-1-propyl-piperidine], the functional capacity result with early-stage HD patients was “maintains, improves or lessens the decline of functional capacity”. Further, in the assay with prodromal HD subjects (52 weeks, vs placebo), the “DMN and functional connectivity” value is listed as “maintenance of or less worsening”; the PBA-s apathy score entry is “improvement or less worsening compared to placebo”; the PBA-s total score entry was “improvement or less worsening compared to placebo”; the “cognitive assessments by the HD-CAB battery of tests” value is listed as “improves or maintains or show less worsening compared to placebo”. In the assay on prodromal HD subjects (52 weeks, vs placebo), the “cognitive assessments by the SDMT” value was “improves, maintains or shows less decline”; the cortical thickness result was “no decrease or less decrease compared to placebo”; the “motor measure Q-Motor finger tapping” value is recorded as “maintenance, improvement or less decline compared to placebo”; the “motor measure TMS” value was “maintenance, improvement or less decline compared to placebo”. Moreover, in the assay on prodromal HD subjects (52 weeks, vs placebo), the total brain volume result is recorded as “no decrease or less decrease compared to placebo”; the ventricular volume result is given as “decrease or maintenance of ventricular volume or a smaller increase in ventricular volume compared to placebo”; the “volume of the striatal structures caudate and putamen” value is recorded as “no decrease or less decrease compared to placebo”. Also, in the assay with prodromal HD subjects (setting [1]), the “level of fluid biomarker NfL” value is reported as “reduction or maintenance”, the “level of fluid biomarker phospho-tau” value is on record as “reduction or maintenance” and the “level of fluid biomarker proenkephalin” value is recorded as “reduction or maintenance”. In addition, the “progression to manifest HD” value with prodromal HD subjects (over the course of the trial (52 weeks), vs placebo group) is recorded as “less participants in the pridopidine group progressed to manifest HD compared to the placebo group”.
